Patent US11780841B2, “3,6-methano-1H-pyrrolo[3,2-b]pyridine and 3,6-methano-1H-pyrrolo[3,2-c]pyridine compounds and medicaments using same” (priority 2018, dated 2023)

test system: recombinant rabies virus 1088 strain expressing Gaussia Luciferase (GLuc) (1088/GLuc); assay type: cell-based; conditions: read-out: Anti-rabies activity

| Structure (SMILES) | IC50 |
| --- | --- |
| O=C(NCCO)[C@]12NC[C@H]3C[C@H]1CN(Cc1ccccc1)[C@H]2[C@@H]3CCc1ccccc1 [IB-681] | 10 to 30 µM |
| NC(=O)CN1C[C@H]2C[C@]3(C(=O)NCc4cccc5ccccc45)NC[C@H]2[C@H]1[C@H]3Cc1ccccc1 (relative stereo) [IF-82] | 10 to 30 µM |
| CC(C)CCN1C[C@@H]2C[C@H]3CN[C@]2(C(=O)NCc2ccccc2)[C@@H]1[C@@H]3Cc1ccccc1 (relative stereo) [IB-9] | 10 to 30 µM |
| CC(C)CN1C[C@H]2C[C@]3(C(=O)NCc4cccc5ccccc45)NC[C@H]2[C@H]1[C@H]3Cc1ccc(O)cc1 (relative stereo) [IF-568] | < 5 µM |
| CC(C)CNC(=O)[C@]12NC[C@H]3C[C@H]1CN(CC1CCCCC1)[C@H]2[C@@H]3Cc1ccc(O)cc1 [IB-770] | 10 to 30 µM |
| CC(C)CC[C@@H]1[C@H]2CN[C@@]3(C(=O)NCCC(N)=O)[C@@H](C2)CN(CC2CCCCC2)[C@@H]13 [IB-357] | 10 to 30 µM |
| O=C(NCCO)[C@]12NC[C@H]3C[C@H]1CN(CC1CCCCC1)[C@H]2[C@@H]3CCc1ccccc1 [IB-663] | < 5 µM |
| CC(C)CCN1C[C@H]2C[C@]3(C(=O)NCC(C)C)NC[C@H]2[C@H]1[C@H]3CCc1ccccc1 [IF-635] | 10 to 30 µM |
| O=C(NCc1ccccc1)[C@]12NC[C@H]3C[C@H]1CN(Cc1ccc(F)cc1)[C@H]2[C@@H]3Cc1ccccc1 [IB-772] | < 5 µM |
| O=C(NCc1ccc(F)cc1)[C@]12NC[C@H]3C[C@H]1CN(CCO)[C@H]2[C@@H]3Cc1cccc2ccccc12 [IB-831] | < 5 µM |
| CC(C)CNC(=O)[C@]12NC[C@H]3C[C@H]1CN(CCC(=O)O)[C@H]2[C@@H]3CCc1ccccc1 [IB-430] | < 5 µM |
| CC(C)C[C@@H]1[C@H]2CN[C@@]3(C(=O)NCCc4ccccc4)[C@@H](C2)CN(Cc2ccc(F)cc2)[C@@H]13 [IB-725] | < 5 µM |
| CC(C)CN1CC2CC3CNC2(C(=O)NCCc2ccccc2)C1C3Cc1ccc(O)cc1 (centres unmarked) [IB-536] | 10 to 30 µM |
| O=C(NCCO)[C@@]12C[C@@H]3CN(CCc4ccccc4)[C@@H]([C@@H]3CN1)[C@H]2Cc1cccc2ccccc12 [IF-612] | 10 to 30 µM |
| COC(=O)N1C[C@H]2C[C@H]3CN(Cc4ccc(C)cc4)[C@@H]([C@@H]2CC(C)C)[C@]31C(=O)NCc1ccccc1 (relative stereo) [IB-885] | 5 to 10 µM |
| NC(=O)CN1C[C@H]2C[C@]3(C(=O)NCc4cccc5ccccc45)NC[C@H]2[C@H]1[C@H]3CCc1ccccc1 (relative stereo) [IF-85] | 10 to 30 µM |
| CC(C)CCN1C[C@@H]2C[C@@H]3CN[C@]2(C(=O)NCc2ccccc2)[C@@H]1[C@@H]3CCC(=O)O [IB-505] | 10 to 30 µM |
| CC(C)CNC(=O)[C@]12NC[C@H]3C[C@H]1CN(CCc1ccccc1)[C@H]2[C@@H]3Cc1ccccc1 [IB-759] | < 5 µM |
| CC(C)CNC(=O)C12NCC3CC1CN(CCC(=O)O)C2C3Cc1cccc2ccccc12 (centres unmarked) [IB-575] | 10 to 30 µM |
| CC(C)C[C@@H]1[C@@H]2[C@@H]3CN[C@@]1(C(=O)NCc1ccccc1)C[C@@H]3CN2Cc1cccc(Cl)c1 [IF-840] | 5 to 10 µM |
| CCCCCCNC(=O)[C@]12NC[C@H]3C[C@H]1CN(CCO)[C@H]2[C@@H]3CC(C)C [IB-477] | < 5 µM |
| CC(C)C[C@@H]1[C@@H]2[C@@H]3CN[C@@]1(C(=O)NCc1ccc(O)cc1)C[C@@H]3CN2Cc1ccc(N(C)C)cc1 [IF-867] | 10 to 30 µM |

| Structure (SMILES) | IC50 |
| --- | --- |
| O=C(NCCO)[C@]12NC[C@H]3C[C@H]1CN(Cc1cccc4ccccc14)[C@H]2[C@@H]3Cc1ccc(O)cc1 [IB-459] | 10 to 30 µM |
| CC(C)CN1C[C@H]2C[C@]3(C(=O)NCc4ccccc4)NC[C@H]2[C@H]1[C@H]3Cc1ccccc1 (relative stereo) [IF-1, (3S*,3aS*,6S*,7R*,7aS*)-N,7-dibenzyl-1-isobutyloctahydro-6H-3,6-methanopyrrolo[3,2-c]pyridine-6-carboxamide] | 10 to 30 µM |
| NC(=O)CCNC(=O)[C@]12NC[C@H]3C[C@H]1CN(CC1CCCCC1)[C@H]2[C@@H]3CCc1ccccc1 [IB-710] | < 5 µM |
| CCCCCCNC(=O)[C@@]12C[C@@H]3CN(Cc4cccc5ccccc45)[C@@H]([C@@H]3CN1)[C@H]2CCCNC(=N)N [IF-243] | < 5 µM |
| CC(C)CCN1C[C@H]2C[C@]3(C(=O)NCc4cccc5ccccc45)NC[C@H]2[C@H]1[C@H]3CC(C)C [IF-705] | < 5 µM |
| O=C(NCc1ccccc1)[C@@]12C[C@@H]3CN(Cc4ccc(F)cc4)[C@@H]([C@@H]3CN1)[C@H]2Cc1ccccc1 [IF-649] | < 5 µM |
| CC(C)CCN1C[C@H]2C[C@]3(C(=O)NCc4ccc(F)cc4)NC[C@H]2[C@H]1[C@H]3CC(C)C (relative stereo) [IF-548] | 10 to 30 µM |
| NC(=O)CN1C[C@@H]2C[C@@H]3CN[C@]2(C(=O)NCc2cccc4ccccc24)[C@@H]1[C@@H]3Cc1ccc(O)cc1 (relative stereo) [IB-83] | 10 to 30 µM |
| Cc1ccc(CN2C[C@@H]3C[C@@H]4CN(CC(C)C)[C@]3(C(=O)NCc3ccccc3)[C@@H]2[C@@H]4CC(C)C)cc1 (relative stereo) [IB-881] | < 5 µM |
| CC(C)CC[C@@H]1[C@H]2CN[C@@]3(C(=O)NCCCNC(=N)N)[C@@H](C2)CN(Cc2cccc4ccccc24)[C@@H]13 [IB-353] | < 5 µM |
| CC(C)C[C@@H]1[C@H]2CN[C@@]3(C(=O)NCCCNC(=N)N)[C@@H](C2)CN(Cc2cccc4ccccc24)[C@@H]13 [IB-350] | 10 to 30 µM |
| CC(C)C[C@@H]1[C@H]2CN[C@@]3(C(=O)NCc4cccc5ccccc45)[C@@H](C2)CN(CC(N)=O)[C@@H]13 (relative stereo) [IB-81] | 10 to 30 µM |
| CC(C)CCNC(=O)[C@@]12C[C@@H]3CN(Cc4ccccc4)[C@@H]([C@@H]3CN1)[C@H]2CC(C)C [IF-691] | 10 to 30 µM |
| CC(C)CC[C@@H]1[C@@H]2[C@@H]3CN[C@@]1(C(=O)NCc1ccc(O)cc1)C[C@@H]3CN2CC1CCCCC1 [IF-474] | < 5 µM |
| N=C(N)NCCCN1C[C@@H]2C[C@@H]3CN[C@]2(C(=O)NCCc2ccccc2)[C@@H]1[C@@H]3Cc1cccc2ccccc12 [IB-327] | 10 to 30 µM |
| CC(C)C[C@@H]1[C@@H]2[C@@H]3CN[C@@]1(C(=O)NCc1ccccc1)C[C@@H]3CN2Cc1ccccc1 (relative stereo) [IF-7] | 5 to 10 µM |
| N=C(N)NCCCNC(=O)[C@@]12C[C@@H]3CN(Cc4cccc5ccccc45)[C@@H]([C@@H]3CN1)[C@H]2CCc1ccccc1 [IF-389] | < 5 µM |
| CC(C)CCNC(=O)[C@]12NC[C@H]3C[C@H]1CN(CC(N)=O)[C@H]2[C@@H]3Cc1cccc2ccccc12 [IB-103] | 10 to 30 µM |
| NC(=O)CN1C[C@H]2C[C@]3(C(=O)NCc4cccc5ccccc45)NC[C@H]2[C@H]1[C@H]3Cc1cccc2ccccc12 (relative stereo) [IF-91] | < 5 µM |
| CCCCCCNC(=O)[C@@]12C[C@@H]3CN(Cc4ccccc4)[C@@H]([C@@H]3CN1)[C@H]2Cc1ccc(O)cc1 [IF-692] | < 5 µM |
| CC(C)CC1C2CNC3(C(=O)NCc4ccc(O)cc4)C(C2)CN(CC2CCCCC2)C13 (centres unmarked) [IB-581] | 10 to 30 µM |
| CC(C)CCN1CC2CC3C=NC2(C(=O)NCc2ccc(F)cc2)C1C3CC(C)C (centres unmarked) [IIB-104] | 5 to 10 µM |

| Structure (SMILES) | IC50 |
| --- | --- |
| CC(C)C[C@@H]1[C@H]2CN[C@@]3(C(=O)NCc4ccc5ccccc5c4)[C@@H](C2)CN(Cc2ccccc2)[C@@H]13 [IB-879] | < 5 µM |
| O=C(NCc1ccc(F)cc1)[C@@]12C[C@@H]3CN(CCO)[C@@H]([C@@H]3CN1)[C@H]2Cc1ccccc1 (relative stereo) [IF-508] | 10 to 30 µM |
| CC(C)CNC(=O)[C@@]12C[C@@H]3CN(CCC(=O)O)[C@@H]([C@@H]3CN1)[C@H]2CCc1ccccc1 [IF-454] | 10 to 30 µM |
| N=C(N)NCCCNC(=O)[C@]12NC[C@H]3C[C@H]1CN(Cc1ccccc1)[C@H]2[C@@H]3Cc1ccccc1 [IB-276] | 10 to 30 µM |
| CC(C)C[C@@H]1[C@H]2CN[C@@]3(C(=O)NCc4ccccc4)[C@@H](C2)CN(Cc2cccc(Cl)c2)[C@@H]13 [IB-865] | 5 to 10 µM |
| CC(C)CC[C@@H]1[C@@H]2[C@@H]3CN[C@@]1(C(=O)NCCC(N)=O)C[C@@H]3CN2Cc1cccc2ccccc12 [IF-384] | 10 to 30 µM |
| CC(C)CNC(=O)[C@@]12C[C@@H]3CN(CC4CCCCC4)[C@@H]([C@@H]3CN1)[C@H]2CC(C)C [IF-742] | 10 to 30 µM |
| NC(=O)CN1C[C@@H]2C[C@@H]3CN[C@]2(C(=O)NCc2ccc(F)cc2)[C@@H]1[C@@H]3Cc1ccccc1 [IB-92] | 10 to 30 µM |
| CC(C)CNC(=O)[C@@]12C[C@@H]3CN(CC(C)C)[C@@H]([C@@H]3CN1)[C@H]2CCc1ccccc1 [IF-679] | < 5 µM |
| CC(C)CN1C[C@@H]2C[C@@H]3CN[C@]2(C(=O)NCCC(N)=O)[C@@H]1[C@@H]3Cc1cccc2ccccc12 [IB-737] | 10 to 30 µM |
| CCCCCCNC(=O)[C@@]12C[C@@H]3CN(Cc4ccccc4)[C@@H]([C@@H]3CN1)[C@H]2CC(C)C (relative stereo) [IF-560] | < 5 µM |
| N=C(N)NCCC[C@@H]1[C@H]2CN[C@@]3(C(=O)NCCc4ccccc4)[C@@H](C2)CN(Cc2ccc(F)cc2)[C@@H]13 [IB-262] | 10 to 30 µM |
| O=C(O)CCN1C[C@@H]2C[C@@H]3CN[C@]2(C(=O)NCc2ccc(F)cc2)[C@@H]1[C@@H]3Cc1ccccc1 [IB-394] | 10 to 30 µM |
| CC(C)CC[C@@H]1[C@@H]2[C@@H]3CN[C@@]1(C(=O)NCc1cccc4ccccc14)C[C@@H]3CN2CCC(=O)O [IF-422] | 10 to 30 µM |
| CC(C)CCN1C[C@H]2C[C@]3(C(=O)NCc4cccc5ccccc45)NC[C@H]2[C@H]1[C@H]3Cc1ccc(O)cc1 [IF-706] | < 5 µM |
| CC(C)CNC(=O)[C@]12NC[C@H]3C[C@H]1CN(CCc1ccccc1)[C@H]2[C@@H]3Cc1ccc(O)cc1 [IB-625] | 10 to 30 µM |
| CC(C)CCNC(=O)[C@]12NC[C@H]3C[C@H]1CN(CCO)[C@H]2[C@@H]3Cc1ccccc1 [IB-714] | < 5 µM |
| CC(C)C[C@@H]1[C@@H]2[C@@H]3CN[C@@]1(C(=O)NCCc1ccccc1)C[C@@H]3CN2Cc1ccc(F)cc1 [IF-714] | < 5 µM |
| O=C(O)CCNC(=O)[C@@]12C[C@@H]3CN(Cc4ccc(F)cc4)[C@@H]([C@@H]3CN1)[C@H]2Cc1cccc2ccccc12 [IF-417] | 10 to 30 µM |
| CCCCCCNC(=O)[C@]12NC[C@H]3C[C@H]1CN(Cc1ccc(F)cc1)[C@H]2[C@@H]3Cc1ccc(O)cc1 [IB-656] | < 5 µM |
| O=C(NCCO)[C@]12NC[C@H]3C[C@H]1CN(Cc1ccccc1)[C@H]2[C@@H]3Cc1cccc2ccccc12 [IB-602] | 10 to 30 µM |

same assay, conditions: read-out: IC50

| Structure (SMILES) | IC50 |
| --- | --- |
| CC(C)CCN1C[C@@H]2C[C@H]3CN[C@]2(C(=O)NCc2ccccc2)[C@@H]1[C@@H]3Cc1ccccc1 (relative stereo) [IB-9] | 17 µM |
| CC(C)CN1C[C@H]2C[C@]3(C(=O)NCc4ccccc4)NC[C@H]2[C@H]1[C@H]3Cc1ccccc1 (relative stereo) [IF-1, (3S*,3aS*,6S*,7R*,7aS*)-N,7-dibenzyl-1-isobutyloctahydro-6H-3,6-methanopyrrolo[3,2-c]pyridine-6-carboxamide] | 12.6 µM |
| CC(C)C[C@@H]1[C@@H]2[C@@H]3CN[C@@]1(C(=O)NCc1ccccc1)C[C@@H]3CN2Cc1ccccc1 (relative stereo) [IF-7] | 8.5 µM |
